Measured values taken from patent US7569601B2, “Cycloalkylidene compounds as modulators of estrogen receptor” (SmithKline Beecham Corporation, priority 2003, dated 2009).

Structure (SMILES) | melting point
CC1(C)CC(=C(c2ccc(O)cc2)c2ccc(/C=C/C(=O)O)cc2)CC(C)(C)C1 [Example 6, (2E)-3-{4-[(4-Hydroxyphenyl)(3,3,5,5-tetramethylcyclohexylidene)methyl]phenyl}-2-propenoic acid] | 219 to 220 °C
CC(=O)Nc1ccc(C(=C2CC(C)(C)CC(C)(C)C2)c2ccc(O)cc2)cc1 [Example 21, N-{4-[(4-hydroxyphenyl)(3,3,5,5-tetramethylcyclohexylidene)methyl]phenyl}acetamide] | 118 to 121 °C
CC1(C)CC(=C(c2ccc(O)cc2)c2ccc(OCCOCCO)cc2)CC(C)(C)C1 [Example 23, 4-[[4-({2-[(2-Hydroxyethyl)oxy]ethyl}oxy)phenyl](3,3,5,5-tetramethylcyclohexylidene)methyl]phenol] | 122 to 124 °C
CC1(C)CC(=C(c2ccc(O)cc2)c2ccc(S(C)(=O)=O)cc2)CC(C)(C)C1 [Example 30, 4-[[4-(Methylsulfonyl)phenyl](3,3,5,5 tetramethylcyclohexylidene)methyl]phenol] | 149 to 150 °C
CC1(C)CC(=C(c2ccc(O)cc2)c2ccc(C(N)=O)cc2)CC(C)(C)C1 [Example 31, 4-[(4-hydroxyphenyl)(3,3,5,5-tetramethylcyclohexylidene)methyl]benzamide] | 209 to 210 °C
CC1(C)CC(=C(c2ccc(O)cc2)c2ccc(OCCO)cc2)CC(C)(C)C1 [Example 32, 4-[{4-[(2-Hydroxyethyl)oxy]phenyl}(3,3,5,5-tetramethylcyclohexylidene)methyl]phenol] | 154 to 155 °C
O=C(O)/C=C/c1ccc(C(=C2CCCCCC2)c2ccc(O)c(Cl)c2)cc1 [Example 42, (2E)-3-{4-[(3-Chloro-4-hydroxyphenyl)(cycloheptylidene)methyl]phenyl}-2-propenoic acid] | 155 to 156 °C
CC1(C)CC(=C(c2ccc(/C=C/C(=O)O)cc2)c2ccc(O)c(Cl)c2)CC(C)(C)C1 [Example 43, (2E)-3-{4-[(3-Chloro-4-hydroxyphenyl)(3,3,5,5-tetramethylcyclohexylidene)methyl]phenyl}-2-propenoic acid] | 111 to 114 °C
CC1(C)CC(=C(c2ccc(/C=C/C(=O)O)cc2)c2ccc(O)c(Cl)c2)CC(C)(C)O1 [Example 44, (2E)-3-{4-[(3-Chloro-4-hydroxyphenyl)(2,2,6,6-tetramethyltetrahydro-4H-pyran-4-ylidene)methyl]phenyl}-2-propenoic acid] | 118 to 121 °C
O=C(O)/C=C/c1ccc(C(=C2CCCCCC2)c2ccc(O)c(F)c2)cc1 [Example 45, (2E)-3-{4-[(3-fluoro-4-hydroxyphenyl)(cycloheptylidene)methyl]phenyl}-2-propenoic acid] | 164 to 165 °C
CC1(C)CC(=C(c2ccc(/C=C/C(=O)O)cc2)c2ccc(O)c(F)c2)CC(C)(C)O1 [Example 46, (2E)-3-{4-[(3-fluoro-4-hydroxyphenyl)(2,2,6,6-tetramethyltetrahydro-4H-pyran-4-ylidene)methyl]phenyl}-2-propenoic acid] | 125 to 128 °C
CC1(C)CC(=C(c2ccc(/C=C/C(=O)O)cc2)c2ccc(O)c(F)c2)CC(C)(C)C1 [Example 47, (2E)-3-{4-[(3-fluoro-4-hydroxyphenyl)(3,3,5,5-tetramethylcyclohexylidene)methyl]phenyl}-2-propenoic acid] | 193 to 195 °C
CC1(C)CC(=C(c2ccc(O)cc2)c2ccc(C#CCO)cc2)CC(C)(C)C1 [Example 48, 4-[[4-(3-hydroxy-1-propyn-1-yl)phenyl](3,3,5,5-tetramethylcyclohexylidene)methyl]phenol] | 141 to 142 °C
C#Cc1ccc(C(=C2CC(C)(C)CC(C)(C)C2)c2ccc(O)cc2)cc1 [Example 49, 4-[(4-Ethynylphenyl)(3,3,5,5-tetramethylcyclohexylidene)methyl]phenol] | 138 to 139 °C
CC1(C)CC(=C(c2ccc(O)cc2)c2ccc(CC(=O)O)cc2)CC(C)(C)C1 [Example 51, {4-[(4-Hydroxyphenyl)(3,3,5,5-tetramethylcyclohexylidene)methyl]phenyl}acetic acid] | 220 to 221 °C
CC1(C)CC(=C(c2ccc(O)cc2)c2ccc(CCC(=O)O)cc2)CC(C)(C)C1 [Example 61, 3-{4-[(4-Hydroxyphenyl)(3,3,5,5-tetramethylcyclohexylidene)methyl]phenyl}propanoic acid] | 243 to 244 °C
O=C(O)COc1ccc(C(=C2CCCCCC2)c2ccc(O)cc2)cc1 [Example 68, ({4-[Cycloheptylidene(4-hydroxyphenyl)methyl]phenyl}oxy)acetic acid] | 170 to 171 °C

Structure (SMILES) | melting point
N#Cc1ccc(C(=C2CCCCCC2)c2ccc(O)cc2)cc1 [Example 77, 4-[cycloheptylidene(4-hydroxyphenyl)methyl]benzonitrile] | 110 to 111 °C
CC1(C)CC(=C(c2ccc(O)cc2)c2ccc(OCC(=O)O)cc2)CC(C)(C)C1 [Example 83, ({4-[(4-Hydroxyphenyl)(3,3,5,5-tetramethylcyclohexylidene)methyl]phenyl}oxy)acetic acid] | 163 to 164 °C
CC1(C)CC(=C(c2ccc(O)cc2)c2ccc(OCCCC(=O)O)cc2)CC(C)(C)C1 [Example 84, 4-({4-[(4-hydroxyphenyl)(3,3,5,5-tetramethylcyclohexylidene)methyl]phenyl}oxy)butanoic acid] | 203 to 204 °C
CC1(C)CC(=C(c2ccc(O)cc2)c2ccc(CO)cc2)CC(C)(C)C1 [Example 91, 4-[[4-(Hydroxymethyl)phenyl](3,3,5,5-tetramethylcyclohexylidene)methyl]phenol] | 134 to 135 °C
CC1(C)CC(=C(c2ccc(O)cc2)c2ccc(CCO)cc2)CC(C)(C)C1 [Example 92, 4-[[4-(2-Hydroxyethyl)phenyl](3,3,5,5-tetramethylcyclohexylidene)methyl]phenol] | 159 to 160 °C
CC1(C)CC(=C(c2ccc(O)cc2)c2ccc(CCCO)cc2)CC(C)(C)C1 [Example 93, 4-[[4-(3-Hydroxypropyl)phenyl](3,3,5,5-tetramethylcyclohexylidene)methyl]phenol] | 160 to 161 °C
CC1(C)CC(=C(c2ccc(O)cc2)c2ccc(-c3ccoc3)cc2)CC(C)(C)C1 [Example 94, 4-[[4-(3-furanyl)phenyl](3,3,5,5-tetramethylcyclohexylidene)methyl]phenol] | 128 to 129 °C
OCCCC#Cc1ccc(C(=C2CCCCCC2)c2ccc(O)cc2)cc1 [Example 100, 4-{Cycloheptylidene[4-(5-hydroxy-1-pentyn-1-yl)phenyl]methyl}phenol] | 125 to 126 °C
CC(C)(O)C#Cc1ccc(C(=C2CC(C)(C)CC(C)(C)C2)c2ccc(O)cc2)cc1 [Example 101, 4-[[4-(3-hydroxy-3-methyl-1-butyn-1-yl)phenyl](3,3,5,5-tetramethylcyclohexylidene)methyl]phenol] | 186 to 187 °C
CC1(C)CC(=C(c2ccc(O)cc2)c2ccc(C#CCCO)cc2)CC(C)(C)C1 [Example 102, 4-[[4-(4-hydroxy-1-butyn-1-yl)phenyl](3,3,5,5-tetramethylcyclohexylidene)methyl]phenol] | 183 to 184 °C
CC1(C)CC(=C(c2ccc(O)cc2)c2ccc(C#CCCC(=O)O)cc2)CC(C)(C)C1 [Example 103, 5-{4-[(4-Hydroxyphenyl)(3,3,5,5-tetramethylcyclohexylidene)methyl]phenyl}-4-pentynoic acid] | 233 to 234 °C
CC(=O)c1ccc(C(=C2CC(C)(C)CC(C)(C)C2)c2ccc(O)cc2)cc1 [Example 104, 1-{4-[(4-Hydroxyphenyl)(3,3,5,5-tetramethylcyclohexylidene)methyl]phenyl}ethanone] | 195 to 196 °C
CC1(C)CC(=C(c2ccc(O)cc2)c2ccc(-c3ccc(CO)cc3)cc2)CC(C)(C)C1 [Example 105, 4-[[4′-(Hydroxymethyl)-4-biphenylyl](3,3,5,5-tetramethylcyclohexylidene)methyl]phenol] | 222 to 223 °C
CC1(C)CC(=C(c2ccc(O)cc2)c2ccc(-c3cccc(CO)c3)cc2)CC(C)(C)C1 [Example 106, 4-[[3′-(Hydroxymethyl)-4-biphenylyl](3,3,5,5-tetramethylcyclohexylidene)methyl]phenol] | 197 to 198 °C
CC1(C)CC(=C(c2ccc(O)cc2)c2ccc(-c3ccccc3C(=O)O)cc2)CC(C)(C)C1 [Example 107, 4′-[(4-Hydroxyphenyl)(3,3,5,5-tetramethylcyclohexylidene)methyl]-2-biphenylcarboxylic acid] | 230 to 231 °C
CC1(C)CC(=C(c2ccc(O)cc2)c2ccc(-c3ccccc3CO)cc2)CC(C)(C)C1 [Example 108, 4-[[2′-(Hydroxymethyl)-4-biphenylyl](3,3,5,5-tetramethylcyclohexylidene)methyl]phenol] | 171 to 172 °C
